Where two headings read alike, the source gives them in different places.
Columns and labels:
[1] = Concentration and elimination of ADP and its metabolites in liver, kidney, muscle, fat/skin after oral ^3H-ADP for 7 d; assay type: in vivo, broilers; conditions: for concentration at 0.25 d / concentration at 1 d / concentration at 3 d / concentration at 7 d / concentration at 14 d: oral; for half-life: po
Experimental: (§1) A total of 36 animals from each species (swine n = 24) were randomly assigned to six equal treatment groups and administered a single daily dose of ^3 H-ADP at 5 mg/kg b. w. (0.1 Ci/g) through oral gavage for 7 consecutive days. All the animals were housed on the basis of their group in the cages or aquaria throughout the whole study period. A group of animals was slaughtered through exsanguination under diethyl ether inhalation of anesthesia in the period of 6 h, 1, 3, 7, 14, and 21 d after the administration. The blood samples were immediately collected into the heparinized tubes and was centrifuged at 1920 × g at 4 °C for 10 min to obtain the plasma. The tissues from the heart, liver, spleen, lung, kidney, craw (broilers), stomach, intestine, fat, skin, muscle, thymus, pancreas, bile, bladder, hair (scale for carp), genital gland, adrenal glands, swim bladder (carp), brain, lymph, and bursa (broilers) were carefully excised and collected. The tissues were thoroughly rinsed with the deionized water to remove the residuary blood, blotted to dryness, and finally to perform the homogenization. In order to avoid cross-contamination the dissecting instruments were washed during the tissue procurements. The blank tissues were collected in order to provide control matrices. The total radioactivity levels in each sample were determined through LSC. The samples extracted from the plasma, bile, and tissues of the liver, kidney, muscle, and fat/skin were analyzed through LC/MS-IT-TOF and v. ARC radiometric detection for metabolite profiling. The blank samples were used as control to determine the background radioactivity or the endogenous nondrug-related ions observed within respective matrices or their extracts.
(§2) The feces and tissues (2 g) were diluted with a mixture of methanol and chloroform (1:3, v:v; 2 mL/g homogenate). This procedure was carried out in a fume hood for the safety aspects. The pH value was adjusted to 9.0 with NH4OH. The mixture was vortexed and sonicated for 5 min and 10 min, respectively, and finally the samples were centrifuged at 7690 × g for 10 min. The supernatant was aspirated and then transferred into a new centrifuge tube. The obtained pellet was again subjected to the same process of vortex, ultrasonication, extraction, and centrifugation. The combined supernatant was concentrated under a stream of nitrogen in a water bath at 40 °C. The residue was reconstituted with 0.3 mL of methanol–water (1:9, v:v) before the injection into the LC-v. ARC/MS-IT-TOF system for analysis.
(§3) ADP and its metabolites in the prepared samples were determined with a v. ARC radiometric detector and a hybrid IT/TOF mass spectrometer connected to the HPLC system (Shimadzu Corp., Kyoto, Japan). The LC system was equipped with a solvent delivery pump (LC-20AD), an auto-sampler (SIL-20AC), a degasser (DGU-20 A 3), a photodiode array detector (SPD-M20A), a communication base module (CBM-20 A), and a column oven (CTO-20AC). The chromatographic separation was achieved by using an Agilent extend-C18 column (2.1 mm × 150 mm, 5 μm) with a gradient mobile phase of A (0.01% ammonia and 5 mM ammonium acetate in water) and B (methanol) at a flow rate of 0.2 mL/min. The column temperature was maintained at 35 °C. Various HPLC methods were performed because of the large number of different metabolites to be analyzed. For the porcine sample, method 1 started at 5% B and increased to 20% B over 35 min, then to 55% B by 60 min, followed by re-equilibration for another 10 min. For the remaining samples, method 2 started at 10% B and increased to 60% B over 30 min, subsequently was maintained at 60% B for an additional 10 min, and then changed to 90% B over 2 min and maintained for 2 min. Afterwards, a re-equilibration step (decreased to 10% B over 1 min and maintained at 10% B for additional 9 min) was followed. For each matrix, more than 98% of the radioactivity injected into the column was eluted during the running time of the gradient program. […]

[2] = as above; assay type: in vivo, swine; conditions: for half-life: pig, po; for concentration at 0.25 d / concentration at 1 d / concentration at 3 d / concentration at 7 d / concentration at 14 d: swine, oral, 5 mg/kg b.w.
Experimental: as §1, §2, §3

[3] = as above; assay type: in vivo, rats; conditions: for half-life: po; for concentration at 0.25 d / concentration at 1 d / concentration at 3 d / concentration at 7 d / concentration at 14 d: oral
Experimental: as §1, §2, §3

[4] = broiler chicken, kidney, 5 mg/kg b.w.
[5] = broilers, muscle, 5 mg/kg b. w.

concentration at 0.25 d [1, 4]: 15400 ± 2120 ng/g | concentration at 1 d [1, 4]: 7240 ± 1020 ng/g | concentration at 3 d [1, 4]: 1150 ± 440 ng/g | concentration at 7 d [1, 4]: 170 ± 20 ng/g | concentration at 14 d [1, 4]: 40 ± 10 ng/g | concentration at 0.25 d ([1]; broiler chicken, muscle, 5 mg/kg b.w.): 530 ± 220 ng/g | share of the sample radioactivity in the detected tissues ([1]; broilers liver, kidney, muscle, fat, over the sampling times): more than 42% | concentration at 0.25 d ([1]; broilers, fat, 5 mg/kg b. w.): 780 ± 240 ng/g | concentration at 1 d ([1]; broilers, fat, 5 mg/kg b. w.): 180 ± 60 ng/g | concentration at 3 d ([1]; broilers, fat, 5 mg/kg b. w.): 140 ± 20 ng/g | concentration at 7 d ([1]; broilers, fat, 5 mg/kg b. w.): 60 ± 10 ng/g | concentration at 0.25 d ([1]; broilers, liver, 5 mg/kg b. w.): 8040 ± 1400 ng/g | concentration at 1 d ([1]; broilers, liver, 5 mg/kg b. w.): 1860 ± 580 ng/g | concentration at 3 d ([1]; broilers, liver, 5 mg/kg b. w.): 1150 ± 440 ng/g | concentration at 7 d ([1]; broilers, liver, 5 mg/kg b. w.): 580 ± 80 ng/g | concentration at 14 d ([1]; broilers, liver, 5 mg/kg b. w.): 130 ± 50 ng/g | concentration at 1 d [1, 5]: 330 ± 100 ng/g | concentration at 3 d [1, 5]: 220 ± 30 ng/g | concentration at 7 d [1, 5]: 30 ng/g | half-life ([1]; broiler fat, after 5 mg/kg b. w. for 7 days, read-out: t1/2 of the individual compound (converted)): 71.5 h | half-life ([1]; broiler kidney, after 5 mg/kg b. w. for 7 days, read-out: t1/2 of the individual compound (converted)): 55.4 h | half-life ([1]; broiler liver, after 5 mg/kg b. w. for 7 days, read-out: t1/2 of the individual compound (converted)): 81.6 h | half-life ([1]; broiler muscle, after 5 mg/kg b. w. for 7 days, read-out: t1/2 of the individual compound (converted)): 40.1 h | half-life ([1]; tissues (liver, kidney, muscle, fat/skin), 5 mg/kg, broilers tissues, read-out: t1/2 of the individual compound, range over tissues): 40.1 to 81.6 h | half-life ([2]; swine fat, after 5 mg/kg b. w. for 7 days, read-out: t1/2 of the individual compound (converted)): 80.9 h | half-life ([2]; swine kidney, after 5 mg/kg b. w. for 7 days, read-out: t1/2 of the individual compound (converted)): 80.9 h | half-life ([2]; swine liver, after 5 mg/kg b. w. for 7 days, read-out: t1/2 of the individual compound (converted)): 105 h | half-life ([2]; swine muscle, after 5 mg/kg b. w. for 7 days, read-out: t1/2 of the individual compound (converted)): 38.9 h | half-life ([2]; tissues (liver, kidney, muscle, fat/skin), 5 mg/kg, swine tissues, read-out: t1/2 of the individual compound, range over tissues): 38.9 to 105 h | share of the sample radioactivity in the detected tissues ([2]; swine liver, kidney, muscle, fat, over the sampling times): more than 42% | concentration at 0.25 d ([2]; fat): 1270 ± 430 ng/g | concentration at 1 d ([2]; fat): 510 ± 120 ng/g | concentration at 3 d ([2]; fat): 330 ± 70 ng/g | concentration at 7 d ([2]; fat): 150 ± 30 ng/g | concentration at 0.25 d ([2]; kidney): 19000 ± 8810 ng/g | concentration at 1 d ([2]; kidney): 4160 ± 2000 ng/g | concentration at 3 d ([2]; kidney): 1080 ± 220 ng/g | concentration at 7 d ([2]; kidney): 360 ± 90 ng/g | concentration at 14 d ([2]; kidney): 110 ± 20 ng/g | concentration at 0.25 d ([2]; liver): 7600 ± 1040 ng/g | concentration at 1 d ([2]; liver): 3010 ± 900 ng/g | concentration at 3 d ([2]; liver): 1320 ± 270 ng/g | concentration at 7 d ([2]; liver): 820 ± 140 ng/g | concentration at 14 d ([2]; liver): 240 ± 50 ng/g | concentration at 0.25 d ([2]; muscle): 1490 ± 390 ng/g | concentration at 1 d ([2]; muscle): 890 ± 220 ng/g | concentration at 3 d ([2]; muscle): 380 ± 90 ng/g | concentration at 7 d ([2]; muscle): 70 ± 10 ng/g | half-life ([3]; rat fat, after 5 mg/kg b. w. for 7 days, read-out: t1/2 of the individual compound (converted)): 62.2 h | half-life ([3]; rat kidney, after 5 mg/kg b. w. for 7 days, read-out: t1/2 of the individual compound (converted)): 76.8 h | half-life ([3]; rat liver, after 5 mg/kg b. w. for 7 days, read-out: t1/2 of the individual compound (converted)): 100 h | half-life ([3]; rat muscle, after 5 mg/kg b. w. for 7 days, read-out: t1/2 of the individual compound (converted)): 70.8 h | concentration at 0.25 d ([3]; rat, fat, 5 mg/kg b. w.): 290 ± 100 ng/g | concentration at 1 d ([3]; rat, fat, 5 mg/kg b. w.): 150 ± 30 ng/g | concentration at 3 d ([3]; rat, fat, 5 mg/kg b. w.): 80 ± 10 ng/g | concentration at 7 d ([3]; rat, fat, 5 mg/kg b. w.): 30 ng/g | concentration at 0.25 d ([3]; rat, kidney, 5 mg/kg b.w.): 3800 ± 1550 ng/g | concentration at 1 d ([3]; rat, kidney, 5 mg/kg b.w.): 1130 ± 430 ng/g | concentration at 3 d ([3]; rat, kidney, 5 mg/kg b.w.): 590 ± 110 ng/g | concentration at 7 d ([3]; rat, kidney, 5 mg/kg b.w.): 350 ± 80 ng/g | concentration at 14 d ([3]; rat, kidney, 5 mg/kg b.w.): 60 ± 10 ng/g | concentration at 0.25 d ([3]; rat, liver, 5 mg/kg b. w.): 6140 ± 1890 ng/g | concentration at 1 d ([3]; rat, liver, 5 mg/kg b. w.): 2830 ± 520 ng/g | concentration at 3 d ([3]; rat, liver, 5 mg/kg b. w.): 1020 ± 270 ng/g | concentration at 7 d ([3]; rat, liver, 5 mg/kg b. w.): 560 ± 120 ng/g | concentration at 14 d ([3]; rat, liver, 5 mg/kg b. w.): 170 ± 30 ng/g | concentration at 0.25 d ([3]; rat, muscle, 5 mg/kg b.w.): 1020 ± 480 ng/g | concentration at 1 d ([3]; rat, muscle, 5 mg/kg b.w.): 700 ± 210 ng/g | concentration at 3 d ([3]; rat, muscle, 5 mg/kg b.w.): 380 ± 90 ng/g | concentration at 7 d ([3]; rat, muscle, 5 mg/kg b.w.): 170 ± 40 ng/g | half-life ([3]; rat, tissues (liver, kidney, muscle, fat/skin), 5 mg/kg, rats tissues, read-out: t1/2 of the individual compound, range over tissues): 62.2 to 100 h | share of the sample radioactivity in the detected tissues ([3]; rats liver, kidney, muscle, fat, over the sampling times): more than 42%
Structure (SMILES): COc1cc(Cc2cnc(N)nc2N)cc(OC)c1N(C)C [A0, 2,4-Diamino-5-[4-(dimethylamino)-3,5-dimethoxybenzyl] pyrimidine]

— publication PMC4738305, “Metabolism and Disposition of Aditoprim in Swine, Broilers, Carp and Rats” (Scientific Reports, 2016)
